Measured values published in US20180244645A1, “2-AMINO-3-FLUORO-3-(FLUOROMETHYL)-6-METHYL-6-PHENYL-3,4,5,6-TETRAHYDROPYRIDINES AS BACE1 INHIBITORS” (H. Lundbeck A/S, priority 2015, published 2018).

Tested on: Aβ40
Assay: Assessment of Aβ levels in rat brain and plasma following BACE1 inhibition (Aβ40 ELISA)
Type: in vivo
Conditions: 3 hours post dose, vs vehicle
Protocol: Assessment of Aβ Levels in Rat Brain and Plasma Following BACE1 Inhibition. Animals.
All rat care and experimental procedures were approved by Lundbeck Veterinary Staff, according to Danish legislature. The rats were maintained in a barrier facility with a 12/12-h light/dark cycle and ad libitum food and water access.
Young adult Male Sprague Dawley rats of approximately 250 g weight were purchased from Charles River and received 0-30 mg/kg of vehicle (10% HP betaCD+1M MeSO4, pH 2.5) or test compounds (dissolved in vehicle) only by oral gavage (p.o). The compounds are dosed at a volume of 5 ml/kg. Cohorts of 5-10 animals were established for each treatment condition.
The animals undergoing treatment were closely monitored by veterinary staff for any signs of toxicity. Monitoring parameters included body weight, physical appearance, changes in coat appearance, occurrence of unprovoked behavior, and blunted or exaggerated responses to external stimuli.
At T=180 minutes after initial dosing the animals were stunned and decapitated with a guillotine. Trunk-blood was sampled in EDTA coated tubes after decapitation of the animal. The blood was centrifuged at 2200G at 4° C. for 15 minutes and the plasma was collected and frozen at −80° C. The blood was aliquoted for Aβ ELISA and pharmacokinetic analysis. Immediately following sacrifice, the brain was extracted and split into 2 halves. The right hemibrains were snap frozen on dry ice and stored at −80° C. The left half was dissected; with the front forebrain taken for Aβ ELISA and the remainder used for DMPK analysis. These samples were also snap frozen on dry ice and stored at −80° C. until use for analysis.
The cortex samples were thawed slightly on wet ice before they were homogenized with a small volume dispersing instrument (T10 basic ULTRA-TURRAX®) which was set at speed 5 for approximately 5-7 sec. The tissue was processed in a 10 times volume of the weight, for example 100 mg of tissue was homogenized in 1000 μL of Homogenization buffer. Homogenization buffer: 50 ml Milli Q water+50 nM NaCl+0.2% Diethylamin (DEA)+1 tablet of Complete Protease inhibitor cocktail+1 nM 4-(2-aminoethyl) benzenesulfonyl fluoride hydrochloride irreversible serine protease inhibitor (AEBSF).
After homogenization 450 μL aliquots of the samples were collected into a 1.5 ml Eppendorf tube and placed on wet ice, 0.5% NP-40 (50 ul) was added to all samples and then they were incubated on ice for 30 min. After which all samples were sonicated using an Ultrasonic homogenizer with 20 kHz homogeneous sound (SONOPLUS HD2070, Bandelin Electronic) 10 pulse set at 12-13% power to extract all the Aβ species. The samples were then centrifuged (Ole Dich 157 MPRF Micro centrifuge) at 20000G for 20 minutes at 4° C. After centrifugation […] of the supernatant was pipetted into 6004 microtubes tubes and neutralized with 154 of 1M Tris-HCL buffer.
WAKO 294-62501 Human/Rat Abeta amyloid (40) kit was used for all ELISA analyses. 30 μL plasma samples or 30 μL of the cortex supernatants generated as described above were placed in 600 μL microtubes tubes on wet ice. To this 30 μL of 8M urea (AppliChem A1049, 9025) was added to generate a 2-fold dilution. Both plasma and cortex supernatants were incubated on ice for 30 min. Standard rows were prepared from the standard peptide stock provided in the kit and standard diluent containing 1.6M Urea (200 μL 8M urea+800 μL of standard diluent) and 0.8M urea (400 μL 8M urea+3600 μL Standard diluent). A serial 2-fold dilution of […] from 100 pmol/ml to 0 pmol/L was prepared for the assay.
After incubation with urea, all samples were further diluted by addition of 5 times standard diluent from the Kit. This was done by adding 240 μL Standard Diluent to 60 μL sample/urea mixture, which was then mixed well. 100 μL of each diluted sample was pipetted into designated wells of the ELISA plate in duplicates. The plate was then covered and incubated overnight at 4° C. […]

Row | Compound | Aβ40 reduction, Brain Rat (10 mg/kg p.o.) [%] | Aβ40 reduction, Brain Rat (30 mg/kg p.o.) [%] | Aβ40 reduction, Plasma Rat (10 mg/kg p.o.) [%] | Aβ40 reduction, Plasma Rat (30 mg/kg p.o.) [%]
1 | COc1cnc(C(=O)Nc2ccc(F)c([C@]3(C)CC[C@@](F)(CF)C(N)=N3)c2)cn1 [Compound 5, N-(3-((2S,5S)-6-Amino-5-fluoro-5-(fluoromethyl)-2-methyl-2,3,4,5-tetrahydropyridin-2-yl)-4-fluorophenyl)-5-methoxypyrazine-2-carboxamide] | 56 | 65 | 44 | 46
2 | C[C@@]1(c2cc(NC(=O)c3cnc(C(F)F)cn3)ccc2F)CC[C@@](F)(CF)C(N)=N1 [Compound 11, N-(3-((2S,5S)-6-Amino-5-fluoro-5-(fluoromethyl)-2-methyl-2,3,4,5-tetrahydropyridin-2-yl)-4-fluorophenyl)-5-(difluoromethyl)pyrazine-2-carboxamide] | 21 | 41 | 39 | 60
3 | C[C@@]1(c2cc(NC(=O)c3ccc(F)cn3)ccc2F)CC[C@@](F)(CF)C(N)=N1 [Compound 13, N-(3-((2S,5S)-6-Amino-5-fluoro-5-(fluoromethyl)-2-methyl-2,3,4,5-tetrahydropyridin-2-yl)-4-fluorophenyl)-5-fluoropicolinamide] | 43 | 59 | 38 | 38
